The target of assay [1] is T1, human adrenomedullin-receptor (Homo sapiens, UniProt O60895+Q16602).
T1 construct: expressed in transfected cells; host or cells: CHO (Chinese hamster ovary) recombinant reporter cell line with aequorin
The experiment in a line: Tests on a recombinant adrenomedullin-receptor reporter cell (CHO, aequorin luminescence). The assay is classed as cell-based. The conditions noted are these: Table 1, CHO cell line carrying the human adrenomedullin-receptor. The procedure:
Activation of the receptor by ligands was measured by aequorin luminescence. Construction of the cell line and measurement procedure has been described in detail [Wunder F., Rebmann A., Geerts A, and Kalthof B., Mol Pharmacol, 73, 1235-1243 (2008)]. In brief: Cells were seeded on opaque 384-well microtiter plates at a density of 4000 cells/well and were grown for 24 h. After removal of culture medium, cells were loaded for 3 h with 0.6 μg/ml coelenterazine in Ca^2+-free Tyrode solution (130 mM sodium chloride, 5 mM potassium chloride, 20 mM HEPES (4-(2-hydroxyethyl)-1-piperazineethanesulfonic acid), 1 mM magnesium chloride, and 4.8 mM sodium hydrogen carbonate, pH 7.4) supplemented with 0.2 mM 3-Isobutyl-1-methylxanthine (IBMX) in a cell culture incubator. Examples were added for 6 min in calcium^2+-free Tyrode solution containing 0.1% bovine serum albumin. Immediately before adding calcium^2+ to a final concentration of 3 mM measurement of the aequorin luminescence was started by use of a suitable luminometer. Luminescence was measured for 60 s. In a typical experiment compounds were tested in a concentration range of 1×10^−13 to 3×10^−6 M.

The target in assay [2] is T2, CLR fused to EYFP and RAMP2 fused to ECFP (Homo sapiens, UniProt O60895+Q16602).
T2 construct: EYFP; ECFP; expressed in transfected cells; host or cells: HEK-293 cells, transient co-transfection
As to the kind of experiment: cAMP assay (CRE luciferase reporter, HEK-293 cells transiently co-transfected with CLR and RAMP2). As to conditions: Table 2, cAMP assay; HEK-293, CLR/RAMP2, CRE luciferase, 3 h stimulation, normalized to [G^14]ADM(14-52). The assay is classed as cell-based. An outline of the steps:
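HEK-293 cells transiently co-transfected with CLR-EYFP, RAMP2-ECFP and a CRE-luc2P luciferase reporter were stimulated with ligands (eight concentrations, triplicate) for 3 h at 37 °C. Luminescence was corrected to 5 µM forskolin, normalized to [G^14]ADM(14-52) standard, and fitted by non-linear regression to dose-response curves.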

Bridge positions count the residues as written; N and C are the ends. Square brackets hold non-standard residues; d marks the D form. Peptide text beside a SMILES is read from it. * marks the point of attachment. Palmitoyl = CCCCCCCCCCCCCCCC(=O)*; NMeK = CN[C@@H](CCCCN)C(=O)O; Orn = NCCC[C@H](N)C(=O)O; Dab = NCC[C@H](N)C(=O)O; Dap = NC[C@H](N)C(=O)O

This note sets out measurements from US20180022780A1, “STABILIZATION ADRENOMEDULLIN DERIVATIVES AND USE THEREOF” (priority 2014, published 2018).

T2 sequence (Q16602 23-461): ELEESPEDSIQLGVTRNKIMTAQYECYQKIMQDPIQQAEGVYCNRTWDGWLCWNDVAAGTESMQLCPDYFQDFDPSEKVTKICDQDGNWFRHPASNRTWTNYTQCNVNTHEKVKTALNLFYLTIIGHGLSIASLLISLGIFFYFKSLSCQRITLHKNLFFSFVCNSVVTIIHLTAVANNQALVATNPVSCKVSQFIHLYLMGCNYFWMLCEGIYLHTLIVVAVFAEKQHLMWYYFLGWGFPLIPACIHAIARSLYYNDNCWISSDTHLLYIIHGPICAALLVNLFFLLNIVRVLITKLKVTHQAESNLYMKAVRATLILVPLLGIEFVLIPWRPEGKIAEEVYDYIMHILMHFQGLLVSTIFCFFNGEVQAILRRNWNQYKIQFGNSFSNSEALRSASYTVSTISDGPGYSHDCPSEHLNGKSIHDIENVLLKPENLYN
T2 sequence (O60895 43-175): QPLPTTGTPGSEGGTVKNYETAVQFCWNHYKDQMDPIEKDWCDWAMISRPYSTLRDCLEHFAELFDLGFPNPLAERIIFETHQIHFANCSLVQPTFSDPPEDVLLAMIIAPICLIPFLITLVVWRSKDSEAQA
T1 sequence (Q16602 23-461): as the sequence (Q16602 23-461) above
T1 sequence (O60895 43-175): as the sequence (O60895 43-175) above

As for `CC[C@H](C)[C@H](NC(=O)[C@H](CCC(N)=O)NC(=O)[C@H](Cc1c[nH]cn1)NC(=O)[C@H](C)NC(=O)[C@H](CC(C)C)NC(=O)[C@H](CCCCN)NC(=O)[C@H](CCC(N)=O)NC(=O)[C@@H](NC(=O)[C@@H](NC(=O)[C@@H]1CCC(=O)NCCCC[C@H](NC(=O)CNC(=O)CN)C(=O)N[C@@H](CCCNC(=N)N)C(=O)N[C@@H](Cc2ccccc2)C(=O)NCC(=O)N[C@@H]([C@@H](C)O)C(=O)N1)[C@@H](C)O)C(C)C)C(=O)N[C@@H](Cc1ccc(O)cc1)C(=O)N[C@@H](CCC(N)=O)C(=O)N[C@@H](Cc1ccccc1)C(=O)N[C@H](C(=O)N[C@@H](CC(=O)O)C(=O)N[C@@H](CCCCN)C(=O)N[C@@H](CC(=O)O)C(=O)N[C@@H](CCCCN)C(=O)N[C@@H](CC(=O)O)C(=O)N[C@@H](CC(N)=O)C(=O)N[C@H](C(=O)N[C@@H](C)C(=O)N1CCC[C@H]1C(=O)N[C@@H](CCCNC(=N)N)C(=O)N[C@@H](CO)C(=O)N[C@@H](CCCCN)C(=O)N[C@H](C(=O)N[C@@H](CO)C(=O)N1CCC[C@H]1C(=O)N[C@@H](CCC(N)=O)C(=O)NCC(=O)N[C@@H](Cc1ccc(O)cc1)C(N)=O)[C@@H](C)CC)C(C)C)[C@@H](C)O` [Example 2, ((2S,5S,11S,14S,23S)-23-(2-(2-aminoacetamido)acetamido)-5-benzyl-2-(3-guanidinopropyl)-11-((R)-1-hydroxyethyl)-3,6,9,12,17,24-hexaoxo-1,4,7,10,13,18-hexaazacyclotetracosane-14-carbonyl)-L-threonyl-ADM(22-52)] (H-GGKRFGTETVQKLAHQIYQFTDKDKDNVAPRSKISPQGY-NH2; lactam 3-8), the EC50 in assay [1] and in assay [2] was more than 1000 nM in each case. With `CC[C@H](C)[C@H](NC(=O)[C@H](CCC(N)=O)NC(=O)[C@H](Cc1c[nH]cn1)NC(=O)[C@H](C)NC(=O)[C@H](CC(C)C)NC(=O)[C@H](CCCCN)NC(=O)[C@H](CCC(N)=O)NC(=O)[C@@H](NC(=O)[C@@H](NC(=O)[C@@H]1CC(=O)NCC[C@H](NC(=O)CNC(=O)CN)C(=O)N[C@@H](CCCNC(=N)N)C(=O)N[C@@H](Cc2ccccc2)C(=O)NCC(=O)N[C@@H]([C@@H](C)O)C(=O)N1)[C@@H](C)O)C(C)C)C(=O)N[C@@H](Cc1ccc(O)cc1)C(=O)N[C@@H](CCC(N)=O)C(=O)N[C@@H](Cc1ccccc1)C(=O)N[C@H](C(=O)N[C@@H](CC(=O)O)C(=O)N[C@@H](CCCCN)C(=O)N[C@@H](CC(=O)O)C(=O)N[C@@H](CCCCN)C(=O)N[C@@H](CC(=O)O)C(=O)N[C@@H](CC(N)=O)C(=O)N[C@H](C(=O)N[C@@H](C)C(=O)N1CCC[C@H]1C(=O)N[C@@H](CCCNC(=N)N)C(=O)N[C@@H](CO)C(=O)N[C@@H](CCCCN)C(=O)N[C@H](C(=O)N[C@@H](CO)C(=O)N1CCC[C@H]1C(=O)N[C@@H](CCC(N)=O)C(=O)NCC(=O)N[C@@H](Cc1ccc(O)cc1)C(N)=O)[C@@H](C)CC)C(C)C)[C@@H](C)O` [Example 5, ((2S,5S,11S,14S,20S)-20-(2-(2-aminoacetamido)acetamido)-5-benzyl-2-(3-guanidinopropyl)-11-((R)-1-hydroxyethyl)-3,6,9,12,16,21-hexaoxo-1,4,7,10,13,17-hexaazacyclohenicosane-14-carbonyl)-L-threonyl-ADM(22-52)] (H-GG[Dab]RFGTDTVQKLAHQIYQFTDKDKDNVAPRSKISPQGY-NH2; lactam 3-8), the EC50 (as a rule, the concentration giving half of the maximal effect) in assay [1] was more than 1000 nM; in assay [2], 112 nM. On to `CC[C@H](C)[C@H](NC(=O)[C@H](CCC(N)=O)NC(=O)[C@H](Cc1c[nH]cn1)NC(=O)[C@H](C)NC(=O)[C@H](CC(C)C)NC(=O)[C@H](CCCCN)NC(=O)[C@H](CCC(N)=O)NC(=O)[C@@H](NC(=O)[C@@H](NC(=O)[C@@H]1CNC(=O)CC[C@H](NC(=O)CNC(=O)CN)C(=O)N[C@@H](CCCNC(=N)N)C(=O)N[C@@H](Cc2ccccc2)C(=O)NCC(=O)N[C@@H]([C@@H](C)O)C(=O)N1)[C@@H](C)O)C(C)C)C(=O)N[C@@H](Cc1ccc(O)cc1)C(=O)N[C@@H](CCC(N)=O)C(=O)N[C@@H](Cc1ccccc1)C(=O)N[C@H](C(=O)N[C@@H](CC(=O)O)C(=O)N[C@@H](CCCCN)C(=O)N[C@@H](CC(=O)O)C(=O)N[C@@H](CCCCN)C(=O)N[C@@H](CC(=O)O)C(=O)N[C@@H](CC(N)=O)C(=O)N[C@H](C(=O)N[C@@H](C)C(=O)N1CCC[C@H]1C(=O)N[C@@H](CCCNC(=N)N)C(=O)N[C@@H](CO)C(=O)N[C@@H](CCCCN)C(=O)N[C@H](C(=O)N[C@@H](CO)C(=O)N1CCC[C@H]1C(=O)N[C@@H](CCC(N)=O)C(=O)NCC(=O)N[C@@H](Cc1ccc(O)cc1)C(N)=O)[C@@H](C)CC)C(C)C)[C@@H](C)O` [Example 6, ((3S,6S,12S,15S,18S)-18-(2-(2-aminoacetamido)acetamido)-12-benzyl-15-(3-guanidinopropyl)-6-((R)-1-hydroxyethyl)-5,8,11,14,17,21-hexaoxo-1,4,7,10,13,16-hexaazacyclohenicosane-3-carbonyl)-L-threonyl-ADM(22-52)] (H-GGERFGT[Dap]TVQKLAHQIYQFTDKDKDNVAPRSKISPQGY-NH2; lactam 3-8), for which the figures for the EC50 in assay [1] and in assay [2] were more than 1000 nM and 303 nM, respectively. On the same counts, the results for `CC[C@H](C)[C@H](NC(=O)[C@H](CCC(N)=O)NC(=O)[C@H](Cc1c[nH]cn1)NC(=O)[C@H](C)NC(=O)[C@H](CC(C)C)NC(=O)[C@H](CCCCN)NC(=O)[C@H](CCC(N)=O)NC(=O)[C@@H](NC(=O)[C@@H](NC(=O)[C@@H]1CC(=O)NCCC[C@H](NC(=O)CNC(=O)CN)C(=O)N[C@@H](CCCNC(=N)N)C(=O)N[C@@H](Cc2ccccc2)C(=O)NCC(=O)N[C@@H]([C@@H](C)O)C(=O)N1)[C@@H](C)O)C(C)C)C(=O)N[C@@H](Cc1ccc(O)cc1)C(=O)N[C@@H](CCC(N)=O)C(=O)N[C@@H](Cc1ccccc1)C(=O)N[C@H](C(=O)N[C@@H](CC(=O)O)C(=O)N[C@@H](CCCCN)C(=O)N[C@@H](CC(=O)O)C(=O)N[C@@H](CCCCN)C(=O)N[C@@H](CC(=O)O)C(=O)N[C@@H](CC(N)=O)C(=O)N[C@H](C(=O)N[C@@H](C)C(=O)N1CCC[C@H]1C(=O)N[C@@H](CCCNC(=N)N)C(=O)N[C@@H](CO)C(=O)N[C@@H](CCCCN)C(=O)N[C@H](C(=O)N[C@@H](CO)C(=O)N1CCC[C@H]1C(=O)N[C@@H](CCC(N)=O)C(=O)NCC(=O)N[C@@H](Cc1ccc(O)cc1)C(N)=O)[C@@H](C)CC)C(C)C)[C@@H](C)O` [Example 9, ((2S,5S,11S,14S,21S)-21-(2-(2-aminoacetamido)acetamido)-5-benzyl-2-(3-guanidinopropyl)-11-((R)-1-hydroxyethyl)-3,6,9,12,16,22-hexaoxo-1,4,7,10,13,17-hexaazacyclodocosane-14-carbonyl)-L-threonyl-ADM(22-52)] (H-GG[Orn]RFGTDTVQKLAHQIYQFTDKDKDNVAPRSKISPQGY-NH2; lactam 3-8) are more than 1000 nM and more than 1000 nM. In assay [2], `CCCCCCCCCCCCCCCC(=O)NCCCC[C@H](N)C(=O)NCC(=O)N[C@H]1CNC(=O)CC[C@@H](C(=O)N[C@H](C(=O)N[C@H](C(=O)N[C@@H](CCC(N)=O)C(=O)N[C@@H](CCCCN)C(=O)N[C@@H](CC(C)C)C(=O)N[C@@H](C)C(=O)N[C@@H](Cc2c[nH]cn2)C(=O)N[C@@H](CCC(N)=O)C(=O)N[C@H](C(=O)N[C@@H](Cc2ccc(O)cc2)C(=O)N[C@@H](CCC(N)=O)C(=O)N[C@@H](Cc2ccccc2)C(=O)N[C@H](C(=O)N[C@@H](CC(=O)O)C(=O)N[C@@H](CCCCN)C(=O)N[C@@H](CC(=O)O)C(=O)N[C@@H](CCCCN)C(=O)N[C@@H](CC(=O)O)C(=O)N[C@@H](CC(N)=O)C(=O)N[C@H](C(=O)N[C@@H](C)C(=O)N2CCC[C@H]2C(=O)N[C@@H](CCCNC(=N)N)C(=O)N[C@@H](CO)C(=O)N(C)[C@@H](CCCCN)C(=O)N[C@H](C(=O)N[C@@H](CO)C(=O)N2CCC[C@H]2C(=O)N[C@@H](CCC(N)=O)C(=O)NCC(=O)N[C@@H](Cc2ccc(O)cc2)C(N)=O)[C@@H](C)CC)C(C)C)[C@@H](C)O)[C@@H](C)CC)C(C)C)[C@@H](C)O)NC(=O)[C@H]([C@@H](C)O)NC(=O)CNC(=O)[C@H](Cc2ccccc2)NC(=O)[C@H](CCCNC(=N)N)NC1=O` [Example 27, ((3S,9S,12S,15S,21S)-15-(2-((S)-2-amino-6-palmitamidohexanamido)acetamido)-9-benzyl-12-(3-guanidinopropyl)-3-((R)-1-hydroxyethyl)-2,5,8,11,14,18-hexaoxo-1,4,7,10,13,17-hexaazacyclohenicosane-21-carbonyl)-L-threonyl-[N-Me-K^46]ADM(22-52)] (H-K(Palmitoyl)G[Dap]RFGTETVQKLAHQIYQFTDKDKDNVAPRS[NMeK]ISPQGY-NH2; lactam 3-8) displayed an EC50 of 3.4 nM.
